The target of one assay is T1, TTK (Homo sapiens, UniProt P33981).
T1 sequence (P33981 1-857): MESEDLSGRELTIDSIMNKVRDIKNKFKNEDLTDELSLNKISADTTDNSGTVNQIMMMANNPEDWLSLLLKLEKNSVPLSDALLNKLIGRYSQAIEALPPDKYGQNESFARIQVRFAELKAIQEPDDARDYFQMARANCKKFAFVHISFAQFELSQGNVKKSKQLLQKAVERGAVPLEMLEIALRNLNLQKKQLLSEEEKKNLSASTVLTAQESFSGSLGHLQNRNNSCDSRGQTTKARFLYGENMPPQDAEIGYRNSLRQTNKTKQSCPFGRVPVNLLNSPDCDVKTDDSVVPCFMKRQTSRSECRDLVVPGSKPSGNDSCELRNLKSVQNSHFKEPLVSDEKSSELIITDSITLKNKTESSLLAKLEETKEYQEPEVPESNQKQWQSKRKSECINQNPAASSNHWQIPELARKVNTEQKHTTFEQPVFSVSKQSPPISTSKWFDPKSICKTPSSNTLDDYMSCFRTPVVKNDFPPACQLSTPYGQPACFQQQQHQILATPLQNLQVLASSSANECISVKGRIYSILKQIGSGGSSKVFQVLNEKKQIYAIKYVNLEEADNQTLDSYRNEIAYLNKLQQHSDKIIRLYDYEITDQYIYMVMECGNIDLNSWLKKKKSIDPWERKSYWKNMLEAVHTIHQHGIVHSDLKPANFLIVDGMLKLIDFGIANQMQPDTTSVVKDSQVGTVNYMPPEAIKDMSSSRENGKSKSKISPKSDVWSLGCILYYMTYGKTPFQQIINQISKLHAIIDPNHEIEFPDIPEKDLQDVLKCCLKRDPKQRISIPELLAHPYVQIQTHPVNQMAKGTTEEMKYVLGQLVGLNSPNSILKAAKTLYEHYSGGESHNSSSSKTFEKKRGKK
The assay is described as follows: TTK assay: screening of TTK kinase activity suppressing action using p38 MAPK peptide. The class given is biochemical. The settings on record: read-out: TTK IC50. The procedure, abridged:
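TTK (4 μg/ml in enzyme solution) mixed with p38 MAPK peptide and ATP (each 60 μM in substrate solution) in Tris-HCl pH 7.5 with MgCl2, DTT, Na3VO4, β-glycerophosphate, BSA. Reaction aliquot captured on NeutrAvidin plate, detected with Eu-labelled anti-mouse IgG by time-resolved fluorescence; inhibition relative to no-compound signal.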

In a further assay the test system is A549. The assay is described as follows: A549 assay: screening of cancer cell growth inhibiting compound. The settings on record: Homo sapiens; A549 cells; values given as IC50 intervals; read-out: A549 IC50. The assay is classed as cell-based. The method in brief:
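A549 cells (1×10^4/ml) in D-MEM with 10% FBS were pre-incubated one day at 37 °C, then exposed to compound dilutions for three further days. Viable cell number read by WST-8 (1–4 hours), absorbance 450 nm (reference 620 nm); inhibition calculated relative to untreated wells.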

One may read the IC50 as the concentration at which inhibition is half-maximal.

As to `CC(Oc1cc(NCC2CCOCC2)c2ncc(-c3ccc(C(=O)NC4CC4)cc3)n2n1)C(F)(F)F` (centres unmarked) [Example 2-184], the IC50 at TTK was 5.6 nM; with A549 it was 50 to 500 nM.
The like results for `CC(C)(Oc1cc(NCC2CCOCC2)c2ncc(-c3ccc(C(=O)NC4CC4)cc3)n2n1)C(F)(F)F` [Example 2-185] were, in that order, 2.7 nM and 50 to 500 nM.
Regarding `O=C(NC1CC1)c1ccc(-c2cnc3c(NCC4CCOCC4)cc(OC4CCC(C(F)(F)F)CC4)nn23)cc1` (centres unmarked) [Example 2-186], the IC50 on TTK is 6.8 nM; in the assay with A549 it was 500 to 1000 nM.
The like results for `CC1(C)CCC(Oc2cc(NCC3CCOCC3)c3ncc(-c4ccc(C(=O)NC5CC5)cc4)n3n2)CC1` [Example 2-187] were, in that order, 7.8 nM and 500 to 1000 nM.
Taken in the same sequence, the figures for `O=C(NC1CC1)c1ccc(-c2cnc3c(NCC4CCOCC4)cc(OC4CCCCC4O)nn23)cc1` (centres unmarked) [Example 2-188] were 5.3 nM and 50 to 500 nM.
`NC1CCCCC1Oc1cc(NCC2CCOCC2)c2ncc(-c3ccc(C(=O)NC4CC4)cc3)n2n1` (centres unmarked) [Example 2-189]: the IC50 at TTK was 8.6 nM; in the assay on A549, 500 to 1000 nM.
Taken in the same sequence, the figures for `O=C(NC1CC1)c1ccc(-c2cnc3c(NCC4CCOCC4)cc(OCC45CC6CC(CC(C6)C4)C5)nn23)cc1` [Example 2-190] were 16.1 nM and 1000 to 10000 nM.
Taken in the same sequence, the figures for `O=C(NC1CC1)c1ccc(-c2cnc3c(NCC4CCOCC4)cc(OC4C5CC6CC(C5)CC4C6)nn23)cc1` (centres unmarked) [Example 2-191] were 3.9 nM and 50 to 500 nM.
Consider `CC1(Oc2cc(NCC3CCOCC3)c3ncc(-c4ccc(C(=O)NC5CC5)cc4)n3n2)CCCC1` [Example 2-192], for which the IC50 on TTK was 2.1 nM; in the assay with A549 it was 50 to 500 nM.
The like results for `O=C(NC1CC1)c1ccc(-c2cnc3c(NCC4CCOCC4)cc(OC45CC6CC(CC(C6)C4)C5)nn23)cc1` [Example 2-193] were, in that order, 6 nM and 50 to 500 nM.
Taken in the same sequence, the figures for `N#Cc1ccc(-c2cc(NCC3CCOCC3)c3ncc(-c4ccc(C(=O)NC5CC5)cc4)n3n2)cn1` [Example 2-199] were 7.4 nM and 50 to 500 nM.
Taken in the same sequence, the figures for `Cc1cc(C#N)ccc1-c1cc(NCC2CCOCC2)c2ncc(-c3ccc(C(=O)NC4CC4)cc3)n2n1` [Example 2-202] were 3.5 nM and 50 to 500 nM.
Turning to `N#Cc1cccc(-c2cc(NCC3CCOCC3)c3ncc(-c4ccc(C(=O)NC5CC5)cc4)n3n2)c1` [Example 2-203], the figures for the IC50 at TTK and with A549 were 4.7 nM and 50 to 500 nM, respectively.
Turning to `COc1cc(C#N)ccc1-c1cc(NCC2CCOCC2)c2ncc(-c3ccc(C(=O)NC4CC4)cc3)n2n1` [Example 2-205], the IC50 was 4.5 nM at TTK and ≤ 50 nM with A549.
Taken in the same sequence, the figures for `N#Cc1ccc(-c2cc(NCC3CCOCC3)c3ncc(-c4ccc(C(=O)NC5CC5)cc4)n3n2)c(Cl)c1` [Example 2-206] were 2.8 nM and 50 to 500 nM.
Regarding `O=C(NC1CC1)c1ccc(-c2cnc3c(NCC4CCOCC4)cc(C=C4CCCCC4)nn23)cc1` [Example 2-207], the IC50 was 5.7 nM at TTK and 500 to 1000 nM with A549.
Taken in the same sequence, the figures for `O=C(NC1CC1)c1ccc(-c2cnc3c(NCC4CCOCC4)cc(CC4CCCCC4)nn23)cc1` [Example 2-208] were 7.1 nM and 50 to 500 nM.
Taken in the same sequence, the figures for `O=C(NC1CC1)c1ccc(-c2cnc3c(NCC4CCOCC4)cc(C=C4CCCC4)nn23)cc1` [Example 2-209] were 8.2 nM and 50 to 500 nM.
Taken in the same sequence, the figures for `O=C(NC1CC1)c1ccc(-c2cnc3c(NCC4CCOCC4)cc(CC4CCCC4)nn23)cc1` [Example 2-210] were 20.3 nM and 1000 to 10000 nM.
In the case of `O=C(NC1CC1)c1ccc(-c2cnc3c(NCC4CCOCC4)cc(C4=CCNCC4)nn23)cc1` [Example 2-211], the values for the 50% inhibitory concentration (IC50) on TTK and in the assay with A549 were 8.3 nM and 50 to 500 nM, respectively.
The like results for `O=C(NC1CC1)c1ccc(-c2cnc3c(NCC4CCOCC4)cc(C4CCNCC4)nn23)cc1` [Example 2-212] were, in that order, 23.1 nM and 1000 to 10000 nM.
Taken in the same sequence, the figures for `CC(=O)N1CC=C(c2cc(NCC3CCOCC3)c3ncc(-c4ccc(C(=O)NC5CC5)cc4)n3n2)CC1` [Example 2-213] were 12 nM and 50 to 500 nM.
Take `O=C(NC1CC1)c1ccc(-c2cnc3c(NCC4CCOCC4)c(Cl)c(OC4CCCC4)nn23)cc1` [Example 2-216]: the figures for the IC50 at TTK and in the assay with A549 were 2.7 nM and 50 to 500 nM, respectively.
In the case of `O=C(NC1CC1)c1ccc(-c2cnc3c(NCC4CCOCC4)c(F)c(OC4CCCC4)nn23)cc1` [Example 2-217], the IC50 on TTK is 13.9 nM; with A549 it was 1000 to 10000 nM.
The like results for `O=C(NC1CC1)c1ccc(-c2cnc3c(NCC4CCOCC4)c(Cl)c(NC4CCCC4)nn23)cc1` [Example 2-218] were, in that order, 12.6 nM and 500 to 1000 nM.
The like results for `CC(C)(Nc1cc(NCC2CCOCC2)c2ncc(-c3ccc(C(=O)NC4CC4)c(F)c3)n2n1)C(F)(F)F` [Example 2-219] were, in that order, 4.3 nM and ≤ 50 nM.
Taken in the same sequence, the figures for `CC(C)(Nc1cc(NCC2CCOCC2)c2ncc(-c3ccc(C(=O)NC4CC4)c(Cl)c3)n2n1)C(F)(F)F` [Example 2-220] were 3.9 nM and ≤ 50 nM.
`Nc1cc(C(=O)NC2CC2)ccc1-c1cnc2c(NCC3CCOCC3)cc(NC3CCCC3)nn12` [Example 2-225]: the IC50 is 9.7 nM at TTK and 50 to 500 nM in the assay on A549.
The like results for `Cc1cc(C(=O)NC2CC2)ccc1-c1cnc2c(NCC3CCOCC3)cc(NC3CCCC3)nn12` [Example 2-226] were, in that order, 6.9 nM and 50 to 500 nM.
Taken in the same sequence, the figures for `O=C(NC1CC1)c1ccc(-c2cnc3c(NCC4CCOCC4)cc(NC4CCCC4)nn23)c(F)c1` [Example 2-227] were 3.5 nM and 50 to 500 nM.
The like results for `O=C(NC1CC1)c1ccc(-c2cnc3c(NCC4CCOCC4)cc(NC4CCCC4)nn23)cc1F` [Example 2-228] were, in that order, 3.6 nM and 50 to 500 nM.
Turning to `O=C(NC1CC1)c1ccc(-c2cnc3c(NCC4CCOCC4)cc(NC4CCCC4)nn23)cc1O` [Example 2-229], the figures for the 50% inhibitory concentration (IC50) at TTK and in the assay with A549 were 4.4 nM and 50 to 500 nM, respectively.
Taken in the same sequence, the figures for `O=C(NC1CC1)c1ccc(-c2cnc3c(NCC4CCOCC4)cc(NC4CCCC4)nn23)cc1Cl` [Example 2-230] were 4.3 nM and ≤ 50 nM.
The like results for `O=C(NC1CC1)c1ccc(-c2cnc3c(NCC4CCOCC4)cc(NC4CCCC4)nn23)c(Cl)c1` [Example 2-231] were, in that order, 5.7 nM and 50 to 500 nM.
Taken in the same sequence, the figures for `Cc1cc(-c2cnc3c(NCC4CCOCC4)cc(NC4CCCC4)nn23)ccc1C(=O)NC1CC1` [Example 2-232] were 2.8 nM and 50 to 500 nM.
Regarding `COc1cc(-c2cnc3c(NCC4CCOCC4)cc(NC4CCCC4)nn23)ccc1C(=O)NC1CC1` [Example 2-233], the IC50 on TTK was 5.7 nM; with A549 it was 500 to 1000 nM.
For `O=C(NC1CC1)c1ccc(-c2nnc3c(NCC4CCOCC4)cc(NC4CCCC4)nn23)cc1` [Example 3-3, 4-(6-(Cyclopentylamino)-8-((tetrahydro-2H-pyran-4-yl)methylamino)-[1,2,4]triazolo[4,3-b]pyridazin-3-yl)-N-cyclopropylbenzamide], the IC50 at TTK was 145 nM; in the assay on A549, 1000 to 10000 nM.
